Values quoted from earlier work as cited in patent US20230399335A1, “PROCESS FOR THE PREPARATION OF ASENAPINE IN THE FORM OF ITS FREE BASE” (LTS LOHMANN Therapie-Systeme AG, priority 2020, published 2023).

Settings: when taken orally

- bioavailability: < 2%
SMILES: CN1C[C@H]2c3ccccc3Oc3ccc(Cl)cc3[C@@H]2C1 (relative stereo) [asenapine, (3aRS,12bRS)-rel-5-chloro-2,3,3a,12b-tetrahydro-2-methyl-1H-dibenz[2,3:6,7]oxepin [4,5-c]pyrrole]
